Data reported in patent publication US10213432B2, “Dosage regimen for a PI-3 kinase inhibitor” (NOVARTIS AG, priority 2012, dated 2019).
Where two headings read alike, the source gives them in different places.

Key:
solid tumors = conditions: humans; Bendell et al., J. Clin. Oncology 2012; cited from earlier work
[1] = tested on: Hormone Receptor Positive (+) metastatic breast cancer; format: in vivo, human; conditions: in combination with letrozole 2.5 mg/day per oral
Description: An open-label, randomized multi-institution clinical study using the hydrochloride salt of Compound A alone and in combination with the therapeutic agent letrozole for the treatment of post-menopausal patients with Hormone Receptor Positive (+) metastatic breast cancer is investigated. Patients are evaluated for safety profile/tolerability and preliminary antitumor effect.
Patients are included in the study if they meet the following criteria: at least 18 years of age, ECOG performance status 0-1, suffering from clinical stage 1V invasive mammary carcinoma (ER-positive, or PR-positive) by immunohistochemistry, life expectancy equal to or greater than 6 months, adequate hematologic, hepatic and renal function (ANC≥1500/mm^3, platelet count≥100,000 mm^3, HgB≥9 g/dL, creatine≤1.5×upper limits of normal, bilirubin≤1.5×upper limits of normal, SGOT, SGPT≤2.5×upper limits of normal if no liver metasis present or SGOT, SGPT alkaline phosphatase≤5×upper limits of normal if liver metasis present, capable of swallowing and retaining oral medication, disease free of prior invasive cancers for >5 years (exception of basal or squamous cancer of skin or cervical carcinoma in situ). Patients may receive concurrent radiation therapy to painful bone metastases or areas of impending bone fracture as long as radiation therapy is completed≤2 weeks prior to study and recovered from toxicity (≤grade 1) induced by this radiation treatment. Post-menopausal female subjects are defined prior to protocol enrollment by any of the following: Subjects at least 55 years of age; Subjects under 55 years of age and amenorrheic for at least 12 months or follicle-stimulating hormone (FSH) values[…] and estradiol levels≤20 IU/L; prior bilateral oophorectomy; prior radiation castration with amenorrhea for at least 6 months; current use of an LHRH agonist for more than 12 months.
Patients with the following mood disorders as judged by investigator or psychiatrist are also excluded: medically documented history of or active major depressive episode; bipolar disorder (I or II), obsessive-compulsive disorder, schizophrenia, a history of suicidal attempt or ideation, or homicidal ideation (immediate risk of doing harm to others); or ≥CTCAE grade 3 anxiety.
In the first stage of the study, safety and tolerability of the hydrochloride salt of Compound A is evaluated in combination with the therapeutic agent letrozole in post-menopausal patients with Hormone Receptor Positive (+) metastatic breast cancer is investigated. The maximum tolerated dose of the hydrochloride salt of Compound A […] is determined at dosages of 100 mg per oral daily, 80 mg per oral daily, and 50 mg per oral daily, in combination with letrozole administered at 2.5 mg/day per oral.
In the second stage of the study, the antitumor effect of the hydrochloride salt of Compound A in combination with letrozole for the treatment of post-menopausal patients with Hormone Receptor Positive (+) metastatic breast cancer is investigated. Patients are administered the hydrochloride salt of Compound A and letrozole at a daily dosage identified to be with in the MTD in the first stage (Arm A).
In one additional experimental arm (Arm C), Patients are administered a daily dosage of the hydrochloride salt of Compound A in the amount of 60, 80 or 100 mg per oral on Monday through Fridays only each week in combination with 2.5 mg/day per oral letrozole.
Secondary outcome for the second stage is progression free survival and response.
Following the above experiment, 51 patients were accrued, 49 progressed after aromatase inhibitor therapy. Median age was 56 years and 95% of patients ad bone metastasis and 70% visceral metastases.

[2] = Arm C (31): 60, 80 or 100 mg per oral Monday through Fridays only

Nc1cc(C(F)(F)F)c(-c2cc(N3CCOCC3)nc(N3CCOCC3)n2)cn1 [Compound A, 5-(2,6-di-morpholin-4-yl-pyrimidin-4-yl)-4-trifluoromethyl-pyridin-2-ylamine]
efficacy in the treatment of solid tumors (solid tumors): has been demonstrated in humans | Median TTP ([1]; Arm A (20): daily dosing): 4 (2-11) months | Patient outcomes: CR ([1]; Arm A (20): daily dosing): 1 | Patient outcomes: PD ([1]; Arm A (20): daily dosing): 7 | Patient outcomes: PR ([1]; Arm A (20): daily dosing): 1 | Patient outcomes: SD ([1]; Arm A (20): daily dosing): 9 | Median TTP [1, 2]: Not reached | Patient outcomes: CR [1, 2]: 0 | Patient outcomes: PD [1, 2]: 8 | Patient outcomes: PR [1, 2]: 0 | Patient outcomes: SD [1, 2]: 4
